Measurements published in paper PMC10455806, “New Sorbicillinoids from the Mangrove Endophytic Fungus Trichoderma reesei SCNU-F0042” (Marine Drugs, 2023).
Where two headings read alike, the source gives them in different places.

How the values were obtained:
Type in all cases: cell-based
[1] = Cell viability assay (MTT method); details: human
Method: (§1) […] Tested cell lines were cultured in Dulbecco’s modified Eagle’s medium (DMEM) (Invitrogen, Carlsbad, CA, USA) supplemented with 5% fetal bovine serum (Hyclone, Logan, UT, USA), 2 mM L-glutamine, […] streptomycin, and 100 units/mL penicillin (Invitrogen). The cultures were maintained at 37 °C in a humidified atmosphere of 5% CO2.

SARS-CoV-2 (BA.2) = assay: microbe, parasite or virus in culture; details: for EC50: 48 h, mean from three parallel experiments, read-out: Inhibition of SARS-CoV-2 Viruses (EC50/μM)
HEK 293T-hACE2 cells = assay: Cell viability assay (MTT method); details: at 80 μM, 293T cells
Method: as §1

[2] = 293T cell, MTT, mean from three parallel experiments, read-out: Cytotoxicity for 293T Cell (IC50/μM)
[3] = Severe acute respiratory syndrome coronavirus 2, HEK-293T, […]

Structure (SMILES) | IC50 [1, 2] | antiviral activity against SARS-CoV-2 (SARS-CoV-2 (BA.2)) | EC50 (SARS-CoV-2 (BA.2); [3]) | cytotoxicity (HEK 293T-hACE2 cells) | IC50 [1] | IC50 (SARS-CoV-2 (BA.2); Severe acute respiratory syndrome coronavirus 2, HEK-293T, […], read-out: IC50 (positive control, SARS-CoV-2 assay))
CC=CC=CC(=O)C1C(C2(C)OC(=O)C(C)=C2O)C2C(=C(O)C=CC=CCO)C(=O)C1(C)C(=O)C2(C)O (stereo not drawn) [Compound 1, 14-hydroxybislongiquinolide] | > 80 µM | no activity | > 80 µM |  |  | 
CC=CC=CC(O)=C1C(=O)C2(C)C(=O)C(C)(O)C1C(C1(C)OC(=O)C(C)=C1O)C2C(=O)C=CC=CCO (stereo not drawn) [Compound 2, 20-hydroxybislongiquinolide] | > 80 µM |  | 29 µM | without cytotoxicity |  | 
CC1=C(O)C(C)(C2C3C(=C(O)C=CC=CCO)C(=O)C(C)(C(=O)C3(C)O)C2C(=O)C=CC=CCO)OC1=O (stereo not drawn) [Compound 3, 14, 20-dihydroxybislongiquinolide] | > 80 µM | no activity | > 80 µM |  |  | 
CC(=O)Oc1cc(/C=C/C=C/C(=O)O)oc(=O)c1C [Compound 5, Acetylchrysopyrone B] | > 80 µM | no activity | > 80 µM |  |  | 
CCC(CC)COC(=O)[C@H](C)N[P@](=O)(OC[C@H]1O[C@@](C#N)(c2ccc3c(N)ncnn23)[C@H](O)[C@@H]1O)Oc1ccccc1 [Remdesivir, reference compound] |  |  | 1.2 µM |  | > 80 µM | 1.2 µM
